The values below come from US20120269730A1, “Intracellular Delivery of Contrast Agents with Functionalized Nanoparticles” (Northwestern University, priority 2009, published 2012).

For data set [1], the system named is NIH/3T3 and HeLa cells. Briefly: Cell counting and percent cell viability (Guava ViaCount flow cytometry). Format: cell-based. To be noted: any of the conditions tested. On the procedure:
Cell Counting and Percent Cell Viability Determination Using a Guava EasyCyte Mini Personal Cell Analyzer (PCA) Flow Cytometry System. Cells were counted and percent cell viability determined via a Guava EasyCyte mini personal cell analyzer (Guava Technologies, Hayward, Calif., USA). Specifically, after cell harvesting an aliquot (10 or 20 μL) of the cell suspensions were mixed with Guava ViaCount reagent (final sample volume of 200 μL) and allowed to stain at room temperature for at least 5 minutes (no longer than 20 minutes). Stained samples were then vortexed for 5 seconds, after which cells were counted and percent cell viability determined via manual analysis using the ViaCount software module. For each sample, 1000 events were acquired with dilution factors that were determined based upon optimum machine performance (approximately 50-200 cells/μL).
To determine the efficacy of cellular uptake, NIH/3T3 and HeLa cells were labeled with increasing concentrations of DNA-Gd(III)-AuNPs or DOTA-Gd(III) for different amounts of time. Following agent incubation, cells were rinsed with DPBS, counted and then percent viability was assessed via flow cytometry. Gd(III) and Au content were determined via ICP-MS of acid digested samples. […] At all concentrations the Gd(III) uptake was >50-fold higher for DNA-Gd(III)-AuNPs than DOTA-Gd(III). […]
On the technique in general: Flow cytometry measures light scatter and fluorescence of single cells or particles in a stream.

The subject of data set [2] is NIH/3T3 cells. Briefly: 14.1T T1-weighted MR imaging and T1 analysis of labeled cell pellets. Conditions: 24 hours, about 10^6 cells. It is filed as cell-based. On the procedure:
(§1) 14.1T MR imaging and T1 measurements were performed on a General Electric/Bruker Omega 600WB 14.1T imaging spectrometer fitted with accustar shielded gradient coils at 25° C. For solution phantoms, 50 […], of 60, 40 and 20 μM Gd(III) (DOTA-Gd(III) and Gd(III)-AuNP) in complete cell media were added to flame-sealed 5¾″ Pasteur pipettes and centrifuged at 4.0° C. and 100×g for 5.0 minutes. Capillaries were then placed in a custom-made glass capillary holder and imaged in a 20 mm birdcage coil. For cell phantoms, approximately 1.5×10^6 NIH/3T3 cells were incubated with 20 or 5.0 μM ([Gd(III)]) Gd(III)-AuNP or DOTA-Gd(III) for 24 hours, rinsed two times with DPBS, and harvested with trypsin. After addition of complete media (1.0 mL total volume) cells were added to flame-sealed 5¾″ Pasteur pipettes and centrifuged at 4.0° C. and 100×g for 5.0 minutes. Capillaries were then placed in a custom-made glass capillary holder and imaged in a 10 mm birdcage coil. Spin lattice relaxation times (T1) were measured using a saturation recovery pulse sequence with static TE (10.18 ms) and variable TR (350, 500, 750, 1000, 1500, 2500, 4000, 7500, 15000 ms) values. […]

The conditions of data set [3]: data taken from Merbach et al., 37° C., cited from earlier work.
Data set [4] in a line: T1-weighted MR imaging and T1 analysis of solution phantoms (3T and 14.1T). Format: physicochemical. As to the method:
as §1

Values joined by “and” are separate entries in the source; they are usually repeats but may differ in a detail not shown here. Equal entries are not always repeated. Where two headings read alike, the source gives them in different places.

Regarding `O=C([O-])CN1CCN(CC(=O)[O-])CCN(CC(=O)O)CCN(CC(=O)[O-])CC1.[Gd+3]` [DOTA-Gd(III)], the “cell toxicity or cell number variation” value in data set [1] is “no evidence of cell toxicity or cell number variation”. The “T1 reduction of labeled cell pellets” value in data set [2] (5.0 μM Gd(III) incubation) and in data set [2] (20 μM Gd(III) incubation) was “no significant difference from control cell pellets” in each case. For the same compound, the “r1 60 MHz (1.41T)” value in data set [3] was 3.2^c mM^−1s^−1; in data set [3] (listed as unconjugated Gd(III) complex), 3.2 mM⁻¹ s⁻¹. Moreover, the “reduction in T1, solution phantoms” value in data set [4] (14.1T, 25° C., 60 μM Gd(III), complete cell media) turned out to be 31%. Also, in data set [4] (per Gd(III) (ionic), image-based, cell media at 25° C.), the “r1 600 MHz (14.1T)” value is 2.1 mM⁻¹ s⁻¹ and 2.2 mM⁻¹ s⁻¹.
